What was measured:
[1] = system: dogs; conditions: numerous studies; cited from earlier work
[2] = system: transplanted tumors; conditions: in vivo; cited from earlier work
[3] = system: cancer patients; conditions: phase I; cited from earlier work
[4] = combined with cisplatin, dacarbazine, melphalan, cytarabine, 5-fluorouracil, gemcitabine, or docetaxel; cited from earlier work
[5] = system: gastrointestinal transit of a charcoal meal; assay: GLP study, gastrointestinal transit of a charcoal meal in rats; assay type: in vivo; conditions: intravenous, 100 mg/kg
Description: Following the unexpected identification of constipation toxicities in patients being treated with imexon in a cancer treatment regimen, a GLP (good laboratory practices) study was undertaken to evaluate the effects of imexon on the gastrointestinal transit of a charcoal meal in rats.

[6] = system: rats; conditions: numerous studies; cited from earlier work
[7] = system: mast cell tumors; conditions: dog, in vivo; cited from earlier work
[8] = system: human lymphoma, melanoma, and prostate cancer cell lines; conditions: mouse, in vivo; cited from earlier work

effect on gastric emptying [5]: reduction in gastric emptying
Structure (SMILES): N=C1NC(=O)N2CC12 (stereo not shown) [imexon, 4-imino-1,3-diazabicyclo[3.1.0]-hexan-2-one]
gastrointestinal lesions on pathologic examination [1]: not shown evidence of gastrointestinal lesions
activity against a variety of transplanted tumors in rodents [2]: active
clinical response [3]: produced objective responses or stabilized neoplastic diseases
tolerability [3]: well tolerated
effect of combination [4]: synergistic therapeutic cytotoxic effect
effect on gastrointestinal transit [5]: statistically significant inhibition of gastrointestinal transit
gastrointestinal lesions on pathologic examination [6]: not shown evidence of gastrointestinal lesions
tumor response in dogs with mast cell tumors [7]: Objective responses have been observed
activity against human lymphoma, melanoma, and prostate cancer cell lines in SCID mice [8]: active

— patent US20070048250A1, “Methods of treating concomitant constipation in a cancer treatment regimen including imexon” (AmpliMed Corporation, priority 2005, published 2007)
